Converted amounts (≈) assume the structure as drawn.
Key:
[1] = system: leukotriene C4; test: Inhibition of CXBG leukotriene production (A23187-stimulated, enzyme immunoassay); assay type: cell-based, mice; details: Mus musculus; CXBG cells, 2×10^6 cells/ml, inhibitor 5 minutes at 37°, A23187 stimulation 10 minutes; read-out: IC50 (μg/ml) LTC4
Procedure: (§1) Representative compounds of Formula I have been tested using the following assay to determine their mammalian leukotriene biosynthesis inhibiting activity and other relevant activities:
(§2) CXBG cells grown intraperitoneally in CB4 B6 /F1 /J mice were washed 5 times in Dulbeccos phosphate buffered saline without calcium or magnesium, suspended in medium 199 (Gibco) at 2×10^6 cells/ml, and incubated 15 minutes at 37°. Inhibitor solutions in methanol were incubated with the cells (10μl/600 μl cells), for 5 minutes at 37°, and the cells were stimulated with 60 μl A23187 (50 μg/ml) for 10 minutes at 37°. Aliquots were removed for measurement of leukotriene C4 or thromboxane B2 by enzyme immunoassay as previously reported (D. K. Miller, et al., J. Immunological Methods, 81, 169-185, 1985). The percentage inhibition was calculated by the following: [formula]

[2] = system: thromboxane B2; test: Inhibition of CXBG prostoglandin (thromboxane B2) production (A23187-stimulated, enzyme immunoassay); assay type: cell-based, mice; details: Mus musculus; CXBG cells, 2×10^6 cells/ml, inhibitor 5 minutes at 37°, A23187 stimulation 10 minutes; read-out: IC50 (μg/ml) Tx B2
Procedure: as §1, §2

IC50 [1] [µg/mL] | IC50 [2] [µg/mL] | Structure (SMILES)
0.75 (≈ 2.93 µM) | 0.5 (≈ 1.95 µM) | COc1ccc(-c2cc3cc(O)ccc3o2)c(O)c1 [5-hydroxy-2-(2-hydroxy-4-methoxyphenyl)benzofuran]
0.028 (≈ 0.109 µM) | 1 (≈ 3.9 µM) | COc1cc(O)ccc1-c1cc2ccc(O)cc2o1 [6-hydroxy-2-(2-methoxy-4-hydroxyphenyl)benzofuran]
0.013 (≈ 0.0507 µM) | 0.3 (≈ 1.17 µM) | COc1ccc(-c2cc3ccc(O)cc3o2)c(O)c1 [6-hydroxy-2-(hydroxy-4-methoxyphenyl)benzofuran]
